Calls of active or inactive are those of the source.
How the values were obtained:
[1] = molecular target: T1, Apoptotic protease-activating factor 1 (Homo sapiens, UniProt O14727); assay: SAR analysis of small molecule Activators of Apaf-1 in a Fluorescent assay.; assay type: functional; settings: read-out: EC50_Mean;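 note: caspase-3 cleavage of fluorogenic Rh110 DEVD substrate downstream of apoptosome activation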
T1 sequence (O14727 whole entry): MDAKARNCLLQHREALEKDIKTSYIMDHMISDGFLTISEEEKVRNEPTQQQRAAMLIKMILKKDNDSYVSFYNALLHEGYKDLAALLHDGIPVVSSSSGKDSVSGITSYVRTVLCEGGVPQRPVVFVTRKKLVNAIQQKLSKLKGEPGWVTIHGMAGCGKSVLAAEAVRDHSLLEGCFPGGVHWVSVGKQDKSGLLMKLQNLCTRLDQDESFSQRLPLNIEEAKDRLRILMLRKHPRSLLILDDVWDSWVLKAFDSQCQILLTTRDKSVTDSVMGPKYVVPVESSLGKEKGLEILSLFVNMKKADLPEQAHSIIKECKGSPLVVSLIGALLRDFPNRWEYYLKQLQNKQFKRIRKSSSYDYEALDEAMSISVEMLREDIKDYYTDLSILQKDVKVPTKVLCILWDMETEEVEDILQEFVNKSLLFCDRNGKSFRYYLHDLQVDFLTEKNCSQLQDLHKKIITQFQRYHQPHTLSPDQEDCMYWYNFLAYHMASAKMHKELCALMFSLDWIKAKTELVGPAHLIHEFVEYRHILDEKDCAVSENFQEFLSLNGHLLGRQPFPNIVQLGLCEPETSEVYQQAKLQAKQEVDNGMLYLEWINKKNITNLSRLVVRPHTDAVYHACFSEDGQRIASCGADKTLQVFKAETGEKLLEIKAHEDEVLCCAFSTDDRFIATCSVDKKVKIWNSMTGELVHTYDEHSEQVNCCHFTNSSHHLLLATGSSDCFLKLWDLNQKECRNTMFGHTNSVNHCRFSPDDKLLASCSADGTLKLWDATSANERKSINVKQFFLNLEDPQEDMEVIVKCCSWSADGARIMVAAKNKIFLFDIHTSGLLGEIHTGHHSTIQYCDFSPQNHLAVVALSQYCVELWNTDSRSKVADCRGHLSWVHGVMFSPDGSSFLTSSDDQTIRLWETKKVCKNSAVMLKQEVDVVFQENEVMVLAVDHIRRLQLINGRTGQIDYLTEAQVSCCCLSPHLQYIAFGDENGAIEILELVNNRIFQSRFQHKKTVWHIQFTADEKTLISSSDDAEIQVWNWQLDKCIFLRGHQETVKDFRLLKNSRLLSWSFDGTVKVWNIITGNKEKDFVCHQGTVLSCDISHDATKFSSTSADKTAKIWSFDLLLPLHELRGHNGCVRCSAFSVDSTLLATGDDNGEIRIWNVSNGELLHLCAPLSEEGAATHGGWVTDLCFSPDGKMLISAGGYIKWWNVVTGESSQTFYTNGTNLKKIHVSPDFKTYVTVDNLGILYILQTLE

[2] = molecular target: T2, Neuropeptides B/W receptor type 1 (Homo sapiens, UniProt P48145); assay: human NPBW1 receptor blockade, IC50 – cell-based, fluorescence, dose response, set 5, late-stage follow-up (AID 588566); assay type: functional
T2 sequence (P48145 whole entry): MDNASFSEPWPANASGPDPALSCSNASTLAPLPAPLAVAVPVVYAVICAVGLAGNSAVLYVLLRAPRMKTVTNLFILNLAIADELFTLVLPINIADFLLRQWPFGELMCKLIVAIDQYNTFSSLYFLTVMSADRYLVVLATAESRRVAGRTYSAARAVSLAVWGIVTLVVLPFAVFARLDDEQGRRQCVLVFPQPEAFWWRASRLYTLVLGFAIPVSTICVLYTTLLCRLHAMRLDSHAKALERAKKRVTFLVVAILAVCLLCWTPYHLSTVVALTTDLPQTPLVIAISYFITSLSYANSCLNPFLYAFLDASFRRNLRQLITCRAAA

[3] = molecular target: Melanin-concentrating hormone receptor 1 (Homo sapiens, UniProt Q99705); assay: Late-stage fluorescence-based counterscreen for antagonists of the G-protein coupled receptor 7 (GPR7): cell-based dose response assay to identify antagonists of the melanin-concentrating hormone receptor 1 (MCHR1) Set 5.; assay type: functional
Melanin-concentrating hormone receptor 1, sequence (Q99705 whole entry): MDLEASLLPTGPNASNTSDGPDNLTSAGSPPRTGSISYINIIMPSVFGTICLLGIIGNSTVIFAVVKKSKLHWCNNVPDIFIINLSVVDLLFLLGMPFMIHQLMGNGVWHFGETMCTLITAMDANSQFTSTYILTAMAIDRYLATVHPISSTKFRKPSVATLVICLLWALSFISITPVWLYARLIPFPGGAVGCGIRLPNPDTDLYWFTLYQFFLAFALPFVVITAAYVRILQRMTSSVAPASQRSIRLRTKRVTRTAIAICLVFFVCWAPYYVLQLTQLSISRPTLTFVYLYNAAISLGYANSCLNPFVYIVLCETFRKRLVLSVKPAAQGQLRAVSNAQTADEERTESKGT

CHO-K1 = assay: Counterscreen for antagonists of the orexin 1 receptor (OX1R; HCRTR1): Homogeneous time resolved fluorescence (HTRF)-based cell-based dose response assay to identify antagonists of the parental CHO-K1 cell line. [Related pubchem assays (depositor defined):AID434989, AID435008, AID463079, AID485270, AID492963, AID492964, AID492965, AID493232, AID504699, AID504701]; assay type: functional; settings: Cricetulus griseus
[4] = Counterscreen for antagonists of the orexin 1 receptor (OX1R; HCRTR1): Fluorescence-based cell-based high throughput dose response assay to identify antagonists of the parental CHO cell line. [Related pubchem assays (depositor defined):AID434989, AID435008, AID463079, AID485270, AID492963, AID492964, AID492965, AID493232, AID504699, AID504701]; assay type: functional
[5] = molecular target: T3, Orexin/Hypocretin receptor type 1 (Homo sapiens, UniProt O43613); assay: Homogeneous Time Resolved Fluorescence (HTRF)-based cell-based high throughput dose response assay for antagonists of the orexin 1 receptor (OX1R; HCRTR1). [Related pubchem assays (depositor defined):AID434989, AID435008, AID463079, AID485270, AID492963, AID492964, AID492965, AID493232, AID504717, AID504718]; assay type: functional
T3 sequence (O43613 whole entry): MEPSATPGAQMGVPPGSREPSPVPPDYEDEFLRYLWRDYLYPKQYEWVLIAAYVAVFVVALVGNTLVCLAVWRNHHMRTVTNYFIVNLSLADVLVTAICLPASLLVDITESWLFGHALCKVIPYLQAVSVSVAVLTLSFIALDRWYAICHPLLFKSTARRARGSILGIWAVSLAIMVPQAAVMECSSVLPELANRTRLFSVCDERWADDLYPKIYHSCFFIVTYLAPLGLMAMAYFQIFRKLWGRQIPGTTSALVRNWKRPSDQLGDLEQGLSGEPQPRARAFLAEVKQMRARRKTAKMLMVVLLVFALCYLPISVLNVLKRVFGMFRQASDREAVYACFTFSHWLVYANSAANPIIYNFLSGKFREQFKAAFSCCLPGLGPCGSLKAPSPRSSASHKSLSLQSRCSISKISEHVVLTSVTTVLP

[6] = molecular target: T3, Orexin/Hypocretin receptor type 1; assay: Fluorescence-based cell-based high throughput dose response assay for antagonists of the orexin 1 receptor (OX1R; HCRTR1). [Related pubchem assays (depositor defined):AID434989, AID435008, AID463079, AID485270, AID492963, AID492964, AID492965, AID493232, AID504717, AID504718]; assay type: functional
Orexin receptor type 2 [7] = molecular target: T4, Orexin receptor type 2 (Homo sapiens, UniProt O43614); assay: Counterscreen assay for antagonists of the orexin 1 receptor (OX1R; HCRTR1): Fluorescence-based cell-based dose response assay for antagonists of the orexin 2 receptor (OX2R; HCRTR2), run by assay provider.; assay type: functional
T4 sequence (O43614 whole entry): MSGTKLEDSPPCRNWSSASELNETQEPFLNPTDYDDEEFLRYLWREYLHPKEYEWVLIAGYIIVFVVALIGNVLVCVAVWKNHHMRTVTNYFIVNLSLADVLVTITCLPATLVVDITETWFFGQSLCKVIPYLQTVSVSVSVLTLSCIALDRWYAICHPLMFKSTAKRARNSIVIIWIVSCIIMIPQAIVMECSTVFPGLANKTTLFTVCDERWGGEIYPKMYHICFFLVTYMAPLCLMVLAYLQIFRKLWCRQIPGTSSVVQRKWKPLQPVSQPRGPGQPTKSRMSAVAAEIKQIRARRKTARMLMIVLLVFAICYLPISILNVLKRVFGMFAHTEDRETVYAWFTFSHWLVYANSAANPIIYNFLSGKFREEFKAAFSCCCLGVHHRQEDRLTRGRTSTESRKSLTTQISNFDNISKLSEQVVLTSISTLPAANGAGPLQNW

Orexin receptor type 2 [8] = molecular target: T4, Orexin receptor type 2; assay: Counterscreen assay for antagonists of the orexin 1 receptor (OX1R; HCRTR1): Homogeneous Time Resolved Fluorescence (HTRF)-based cell-based dose response assay for antagonists of the orexin 2 receptor (OX2R; HCRTR2), run by assay provider.; assay type: functional
CHO = CHO cell viability loss, potency – luminescence, cytotoxicity control for TLR9-MyD88 binding inhibitor project, dose response (AID 588339); assay type: functional, cell-based, hamster; settings: Cricetulus griseus;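 note: CHO cells stably coexpressing TLR9 and MyD88 fusions from primary screen; compound exposure lasted 48 hours before viability readout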
[9] = molecular target: T5, Endoribonuclease toxin MazF (Escherichia coli K-12, UniProt P0AE70); assay: activation of MazEF endoribonuclease cleavage – biochemical, fluorescence, single-stranded RNA substrate, uHTS hits, dose response (AID 588481); assay type: functional
T5 sequence (P0AE70 whole entry): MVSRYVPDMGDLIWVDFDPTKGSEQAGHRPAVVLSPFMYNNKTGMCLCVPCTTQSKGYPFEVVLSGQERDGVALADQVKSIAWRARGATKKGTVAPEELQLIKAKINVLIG

Beta Lactamase = Beta Lactamase (Pseudomonas aeruginosa, UniProt Q932Y6); assay: BLA reporter interference, concentration series – BLA reporter cells, FRET fluorescence, artefact control for TLR9-MyD88 binding inhibitor project, dose response (AID 588341); assay type: cell-based;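 note: cell based assay in CHO-K1 cells stably expressing beta-lactamase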
Beta Lactamase, sequence (Q932Y6 whole entry): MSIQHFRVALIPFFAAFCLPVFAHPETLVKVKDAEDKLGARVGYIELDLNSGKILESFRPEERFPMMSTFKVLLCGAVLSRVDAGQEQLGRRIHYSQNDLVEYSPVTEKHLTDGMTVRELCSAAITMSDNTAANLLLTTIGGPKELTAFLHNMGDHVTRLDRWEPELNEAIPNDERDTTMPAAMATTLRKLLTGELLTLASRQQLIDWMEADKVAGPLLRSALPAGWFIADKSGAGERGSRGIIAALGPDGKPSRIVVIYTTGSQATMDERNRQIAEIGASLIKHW

[10] = molecular target: T5, Endoribonuclease toxin MazF; assay: substrate-only fluorescence increase artefacts – biochemical, single-stranded RNase substrate, counter-screen for MazEF activator project, dose response (AID 588502); assay type: functional
[11] = molecular target: Latent membrane protein 1 (Human herpesvirus 4 (strain B95-8), UniProt P03230); assay: LMP1 TES1 pathway selectivity over dsRED control – imaging, HEK293T, dual-color eGFP/dsRED, cherry-picks, selectivity assay for LMP1 NF-kB inhibitor project, dose response (AID 588398); assay type: functional, cell-based
Latent membrane protein 1, sequence (P03230 whole entry): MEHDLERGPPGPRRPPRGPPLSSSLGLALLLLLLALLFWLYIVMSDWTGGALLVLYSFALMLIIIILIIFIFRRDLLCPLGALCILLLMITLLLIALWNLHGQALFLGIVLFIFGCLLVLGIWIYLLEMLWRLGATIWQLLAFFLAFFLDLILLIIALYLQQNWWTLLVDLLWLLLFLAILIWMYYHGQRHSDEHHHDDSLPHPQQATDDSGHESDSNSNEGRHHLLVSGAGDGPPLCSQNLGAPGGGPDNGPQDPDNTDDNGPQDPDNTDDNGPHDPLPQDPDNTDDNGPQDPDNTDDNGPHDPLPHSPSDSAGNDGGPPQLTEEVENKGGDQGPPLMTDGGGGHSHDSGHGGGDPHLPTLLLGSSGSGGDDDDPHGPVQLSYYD

HEK293 = assay: EBV LMP1 TES2 canonical NF-kB signalling blockers – cell-based, HEK293, luciferase, cherry-pick, dose response (AID 588343); assay type: functional; settings: Homo sapiens
[12] = blockers of CAL PDZ–TMR peptide complex – biochemical, fluorescence polarization, untagged CAL PDZ, cherry-pick, set 2, dose response (AID 602254); assay type: functional
[13] = molecular target: Serine/threonine-protein kinase pim-1 (Homo sapiens, UniProt P11309); assay type: functional
Serine/threonine-protein kinase pim-1, sequence (P11309 whole entry): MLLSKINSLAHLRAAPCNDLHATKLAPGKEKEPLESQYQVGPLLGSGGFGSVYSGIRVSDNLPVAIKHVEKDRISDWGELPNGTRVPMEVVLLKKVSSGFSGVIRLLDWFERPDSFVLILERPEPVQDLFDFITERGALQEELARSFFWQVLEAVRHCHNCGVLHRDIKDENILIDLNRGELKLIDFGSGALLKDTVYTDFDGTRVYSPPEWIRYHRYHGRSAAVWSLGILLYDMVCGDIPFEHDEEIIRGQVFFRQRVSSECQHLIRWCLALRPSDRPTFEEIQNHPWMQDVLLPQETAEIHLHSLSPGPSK

[14] = molecular target: Cell division cycle 7-related protein kinase (Homo sapiens, UniProt O00311); assay type: functional;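 note: value obtained from a kinome-wide kinase panel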
Cell division cycle 7-related protein kinase, sequence (O00311 whole entry): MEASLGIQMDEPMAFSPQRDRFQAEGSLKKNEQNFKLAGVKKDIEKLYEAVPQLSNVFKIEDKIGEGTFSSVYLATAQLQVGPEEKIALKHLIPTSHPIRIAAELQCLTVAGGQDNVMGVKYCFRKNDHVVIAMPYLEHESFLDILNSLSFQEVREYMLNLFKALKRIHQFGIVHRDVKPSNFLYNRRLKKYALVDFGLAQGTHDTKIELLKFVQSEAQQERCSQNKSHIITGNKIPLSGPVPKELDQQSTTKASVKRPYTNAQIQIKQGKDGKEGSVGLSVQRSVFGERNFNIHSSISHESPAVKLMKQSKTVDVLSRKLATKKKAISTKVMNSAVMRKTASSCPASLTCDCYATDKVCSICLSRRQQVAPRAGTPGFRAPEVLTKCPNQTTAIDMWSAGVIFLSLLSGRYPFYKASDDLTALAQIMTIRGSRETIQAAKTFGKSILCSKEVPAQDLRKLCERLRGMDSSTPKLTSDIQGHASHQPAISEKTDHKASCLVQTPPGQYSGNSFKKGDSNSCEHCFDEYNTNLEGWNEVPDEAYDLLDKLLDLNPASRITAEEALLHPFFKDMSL

[15] = molecular target: Homeodomain-interacting protein kinase 2 (Homo sapiens, UniProt Q9H2X6); assay type: functional;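 note: measured within a kinome-wide kinase profiling panel, HIPK2 being one panel member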
[16] = molecular target: Interleukin-1 receptor-associated kinase 4 (Homo sapiens, UniProt Q9NWZ3); assay type: functional
Interleukin-1 receptor-associated kinase 4, sequence (Q9NWZ3 whole entry): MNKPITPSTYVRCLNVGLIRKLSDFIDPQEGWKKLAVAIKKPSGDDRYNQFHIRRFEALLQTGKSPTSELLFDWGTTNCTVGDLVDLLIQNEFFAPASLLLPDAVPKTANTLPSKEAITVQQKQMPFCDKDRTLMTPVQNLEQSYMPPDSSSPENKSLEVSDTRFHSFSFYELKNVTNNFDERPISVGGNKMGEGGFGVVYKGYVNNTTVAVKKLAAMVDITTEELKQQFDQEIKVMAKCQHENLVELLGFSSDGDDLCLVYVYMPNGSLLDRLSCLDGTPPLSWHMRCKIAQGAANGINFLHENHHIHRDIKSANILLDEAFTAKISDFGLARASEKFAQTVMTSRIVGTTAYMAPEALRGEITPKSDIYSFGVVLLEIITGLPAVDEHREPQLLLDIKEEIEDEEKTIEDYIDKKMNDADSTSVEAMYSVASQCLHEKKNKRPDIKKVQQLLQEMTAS

[17] = molecular target: Glycogen synthase kinase-3 beta (Homo sapiens, UniProt P49841); assay type: functional;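 note: value comes from a broad kinome profiling panel, with GSK3B as the panel member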
[18] = molecular target: cAMP-dependent protein kinase catalytic subunit alpha (Homo sapiens, UniProt P17612); assay type: functional
[19] = molecular target: Mitogen-activated protein kinase kinase kinase kinase 4 (Homo sapiens, UniProt O95819); assay type: functional
Mitogen-activated protein kinase kinase kinase kinase 4, sequence (O95819 whole entry): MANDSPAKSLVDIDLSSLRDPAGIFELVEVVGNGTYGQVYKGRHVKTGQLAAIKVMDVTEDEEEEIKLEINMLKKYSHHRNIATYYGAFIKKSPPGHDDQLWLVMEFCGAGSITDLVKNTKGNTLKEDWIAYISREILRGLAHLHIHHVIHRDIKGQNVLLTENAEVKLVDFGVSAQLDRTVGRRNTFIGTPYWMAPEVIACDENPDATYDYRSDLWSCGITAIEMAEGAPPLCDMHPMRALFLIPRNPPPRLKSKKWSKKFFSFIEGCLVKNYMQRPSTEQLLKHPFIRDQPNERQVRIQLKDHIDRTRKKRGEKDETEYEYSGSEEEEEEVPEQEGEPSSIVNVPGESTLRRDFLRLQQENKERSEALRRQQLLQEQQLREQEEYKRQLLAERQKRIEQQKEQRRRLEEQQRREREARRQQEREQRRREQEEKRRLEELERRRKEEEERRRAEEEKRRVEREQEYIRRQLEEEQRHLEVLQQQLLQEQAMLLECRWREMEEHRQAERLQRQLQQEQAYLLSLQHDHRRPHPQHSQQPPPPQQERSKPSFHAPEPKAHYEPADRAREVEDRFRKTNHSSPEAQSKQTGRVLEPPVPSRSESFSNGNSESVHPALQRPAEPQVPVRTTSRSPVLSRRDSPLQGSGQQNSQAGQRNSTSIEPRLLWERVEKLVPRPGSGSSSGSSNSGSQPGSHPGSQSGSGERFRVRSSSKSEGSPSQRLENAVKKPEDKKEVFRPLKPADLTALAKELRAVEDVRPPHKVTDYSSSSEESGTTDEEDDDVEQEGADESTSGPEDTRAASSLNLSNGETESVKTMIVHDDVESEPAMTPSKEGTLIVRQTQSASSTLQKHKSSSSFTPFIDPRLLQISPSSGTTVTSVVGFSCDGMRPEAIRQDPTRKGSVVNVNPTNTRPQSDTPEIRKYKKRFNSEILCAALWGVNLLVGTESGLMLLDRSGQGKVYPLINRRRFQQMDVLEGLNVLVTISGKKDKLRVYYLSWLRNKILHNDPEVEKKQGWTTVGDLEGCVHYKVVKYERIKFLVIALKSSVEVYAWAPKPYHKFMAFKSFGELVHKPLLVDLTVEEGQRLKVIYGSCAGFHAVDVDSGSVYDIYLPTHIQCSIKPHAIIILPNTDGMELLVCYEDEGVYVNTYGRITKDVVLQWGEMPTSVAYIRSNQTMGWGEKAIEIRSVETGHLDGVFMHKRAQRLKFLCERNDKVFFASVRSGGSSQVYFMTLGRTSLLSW

[20] = molecular target: Mitochondrial peptide methionine sulfoxide reductase (Bos taurus, UniProt P54149); assay type: functional;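 note: absorbance read-out, biochemical high-throughput dose-response screen for MsrA inhibitors, confirmatory; recombinant bovine MsrA coupled to E. coli TrxB with NADPH and selenocystamine; potency is for inhibitors of MsrA activity on DMSO substrate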
Mitochondrial peptide methionine sulfoxide reductase, sequence (P54149 whole entry): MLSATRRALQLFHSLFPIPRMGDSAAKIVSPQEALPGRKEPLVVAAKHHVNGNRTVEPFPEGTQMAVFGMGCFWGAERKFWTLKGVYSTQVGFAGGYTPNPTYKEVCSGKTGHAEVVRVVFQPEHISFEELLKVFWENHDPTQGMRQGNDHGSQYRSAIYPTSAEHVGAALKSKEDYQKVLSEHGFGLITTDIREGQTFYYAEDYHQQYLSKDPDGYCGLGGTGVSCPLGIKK

[21] = molecular target: Tyrosine-protein kinase SYK (Homo sapiens, UniProt P43405); assay type: functional
[22] = molecular target: Mitogen-activated protein kinase 13 (Homo sapiens, UniProt O15264); assay type: functional
Mitogen-activated protein kinase 13, sequence (O15264 whole entry): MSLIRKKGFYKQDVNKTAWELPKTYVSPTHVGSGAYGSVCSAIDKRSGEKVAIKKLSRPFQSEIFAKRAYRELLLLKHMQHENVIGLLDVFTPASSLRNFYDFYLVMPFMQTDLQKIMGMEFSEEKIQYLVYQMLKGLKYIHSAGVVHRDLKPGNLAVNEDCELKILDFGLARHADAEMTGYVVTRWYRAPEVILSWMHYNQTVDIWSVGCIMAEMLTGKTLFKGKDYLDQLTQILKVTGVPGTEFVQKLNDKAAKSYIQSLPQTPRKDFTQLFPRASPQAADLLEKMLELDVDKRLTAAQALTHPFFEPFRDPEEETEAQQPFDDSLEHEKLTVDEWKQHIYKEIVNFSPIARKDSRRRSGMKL

[23] = molecular target: Proto-oncogene tyrosine-protein kinase Src (Homo sapiens, UniProt P12931); assay type: functional;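 note: SRC entry within a kinome-wide kinase profiling panel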
Proto-oncogene tyrosine-protein kinase Src, sequence (P12931 2-536 limits assumed): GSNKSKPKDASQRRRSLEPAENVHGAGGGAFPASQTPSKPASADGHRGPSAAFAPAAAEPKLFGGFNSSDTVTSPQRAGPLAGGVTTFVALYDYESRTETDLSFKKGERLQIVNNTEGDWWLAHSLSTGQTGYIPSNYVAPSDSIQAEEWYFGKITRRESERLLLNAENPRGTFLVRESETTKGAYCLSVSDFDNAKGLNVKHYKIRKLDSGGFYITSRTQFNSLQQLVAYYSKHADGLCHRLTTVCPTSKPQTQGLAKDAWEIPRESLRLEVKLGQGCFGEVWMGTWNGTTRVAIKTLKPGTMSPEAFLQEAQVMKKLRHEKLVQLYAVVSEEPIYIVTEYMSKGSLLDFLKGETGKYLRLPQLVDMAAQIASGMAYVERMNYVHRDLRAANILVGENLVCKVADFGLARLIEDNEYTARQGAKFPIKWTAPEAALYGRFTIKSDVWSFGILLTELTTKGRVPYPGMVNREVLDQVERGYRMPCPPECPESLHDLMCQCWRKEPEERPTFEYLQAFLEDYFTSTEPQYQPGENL

[24] = THP-1 cell cytotoxicity, cytotoxicity control, set 4 (AID 504911); assay type: functional; settings: Mycobacterium tuberculosis

## CCOc1ccccc1NC(=O)CCS(=O)(=O)c1ccc2c(c1)CCN2C(C)=O
[1]
  EC50: > 100 µM (inactive)

## COc1ccc(Oc2c(Cl)cnn(Cc3cccc4ccccc34)c2=O)c(F)c1F
[2]
  IC50: 0.292 µM (active)
[3]
  IC50: 2.05 µM (active)

## Cc1c(/C=C/C(=O)c2cccs2)cnn1C
CHO-K1
  IC50: 35 µM (inactive)
[4]
  IC50: > 49.8 µM (inactive)
[5]
  IC50: 3.97 µM (active)
[6]
  IC50: > 49.8 µM (inactive)
Orexin receptor type 2 [7]
  IC50: > 88.8 µM (inactive)
Orexin receptor type 2 [8]
  IC50: > 50 µM (inactive)

## CCN(CC)c1ccc(C=NNc2ccc([N+](=O)[O-])cn2)cc1
CHO
  IC50: 24.3 µM (inactive)
[9]
  EC50: > 99 µM (inactive)
Beta Lactamase
  IC50: 4.5 µM (active)
[10]
  EC50: 70.2 µM (inactive)

## COCCCNCC1C(Oc2ccc(Cl)cc2)C(=O)N1c1ccccc1C (stereo unspecified)
[11]
  AC50: 28.2 µM (active)

## Nc1nc2ccccc2n1C(=O)c1ccccc1
HEK293
  AC50: 5.38 µM (active)
[11]
  AC50: 108 µM (active)

## O=C(CNC(=O)c1ccc2c(c1)OCCO2)N/N=C/c1ccc(Cl)cc1
[12]
  AC50: 101 µM (active)

## Cc1n[nH]c2ccc(-c3cncc(OCCN(C)S(C)(=O)=O)c3)cc12
[13]
  Ki: 5.01 µM (active)
[14]
  Ki: 0.0126 µM (active)
[15]
  Ki: > 3.16 µM (inactive)
[16]
  Ki: 3.16 µM (active)
[17]
  Ki: 0.398 µM (active)
[18]
  Ki: 0.631 µM (active)
[19]
  Ki: 0.126 µM (active)

## CCOC(=O)C(C#N)c1c(Cl)c(Br)nn(Cc2cccc3ccccc23)c1=O (stereo unspecified)
[2]
  IC50: 1.45 µM (active)
[3]
  IC50: 3.33 µM (active)

## COC(=O)CC/C(C)=N\Nc1ccc([N+](=O)[O-])cc1[N+](=O)[O-]
[20]
  IC50: 155 µM (inactive)

## Cn1cc(C=C2C(=O)Nc3cccnc32)c2ccccc21 [GW441756X]
[21]
  Ki: 0.501 µM (active)
[22]
  Ki: > 7.94 µM (inactive)
[23]
  Ki: 0.501 µM (active)

## NC(=O)c1cnccn1 [PYRAZINAMIDE]
[24]
  CC50: > 100 µM (active)

From ChEMBL document CHEMBL1201862, “PubChem BioAssay data set” (2004)
